Test results taken from ChEMBL document CHEMBL3885861, “Open TG-GATES”.

Species: Rattus norvegicus
Assay: Open TG-GATES - Regimen: Single
Type: toxicity, organism-based, Sprague-Dawley
Set-up: regimen Single, gender Male, age 6 weeks
Settings: in vivo, po, 60 mg/kg, route gavage, dose level Middle; for APTT / Bas / Eos / Fbg / Hb / Ht / Lym / MCH / MCHC / MCV / Mono / Neu / PT / Plat / RBC / Ret / WBC: tissue Blood; for KIDNEY_L / KIDNEY_R / KIDNEY_TOTAL: tissue Kidney; for LIVER: tissue Liver; for A/G / ALP / ALT / AST / BUN / CRE / Ca / Cl / DBIL / GLC / IP / K / LDH / Na / PL / RALB / TBIL / TC / TG / TP / gamma-GTP: tissue Plasma

`CCc1oc2ccccc2c1C(=O)c1cc(Br)c(O)c(Br)c1` [BENZBROMARONE] was tested, and the TERMINAL_BW (3 h) was 215.1 g, the APTT (3 h) was 17.4 s and the Bas (3 h) was 0%. It also gave an Eos (3 h) of 1%, a Fbg (3 h) of 233.2 mg/dL and a Hb (3 h) of 13.8 g/dL. The Ht (3 h) was 41.1%, the Lym (3 h) was 83% and the MCH (3 h) was 21.9 pg. The MCHC (3 h) was 33.7%, the MCV (3 h) was 64.9 fL and the Mono (3 h) was 6.6%. It also gave a Neu (3 h) of 9.4%, a PT (3 h) of 11.8 s and a Plat (3 h) of 99.4 x10_4/uL. It also gave an RBC (3 h) of 633 x10_4/ul, a Ret (3 h) of 7.5% and a WBC (3 h) of 133 x10_2/uL. For the same compound, the KIDNEY_L (3 h) was 1 g, the KIDNEY_R (3 h) was 1 g and the KIDNEY_TOTAL (3 h) was 1.9 g. The LIVER (3 h) was 10.6 g, the A/G (3 h) was 2.1 and the ALP (3 h) was 892.8 IU/L. For the same compound, the ALT (3 h) was 30.6 IU/L, the AST (3 h) was 62.4 IU/L and the BUN (3 h) was 12.8 mg/dL. The CRE (3 h) was 0.6 mg/dL, the Ca (3 h) was 11 mg/dL and the Cl (3 h) was 103.8 meq/L. The DBIL (3 h) was 0.064 mg/dL, the GLC (3 h) was 202.8 mg/dL and the IP (3 h) was 9.8 mg/dL. The K (3 h) was 4.8 meq/L, the LDH (3 h) was 87.4 IU/L and the Na (3 h) was 139.6 meq/L. For the same compound, the PL (3 h) was 147.6 mg/dL, the RALB (3 h) was 3.8 g/dL and the TBIL (3 h) was 0.3 mg/dL. The TC (3 h) was 82.6 mg/dL, the TG (3 h) was 72.8 mg/dL and the TP (3 h) was 5.7 g/dL. For the same compound, the gamma-GTP (3 h) was 1 IU/L, the TERMINAL_BW (6 h) was 212 g and the APTT (6 h) was 16.1 s. For the same compound, the Bas (6 h) was 0%, the Eos (6 h) was 1% and the Fbg (6 h) was 230.6 mg/dL. The Hb (6 h) was 13.5 g/dL, the Ht (6 h) was 40.2% and the Lym (6 h) was 75.6%. For the same compound, the MCH (6 h) was 21.7 pg, the MCHC (6 h) was 33.6% and the MCV (6 h) was 64.5 fL. For the same compound, the Mono (6 h) was 6.4%, the Neu (6 h) was 17.2% and the PT (6 h) was 12.2 s. It also gave a Plat (6 h) of 103.4 x10_4/uL, an RBC (6 h) of 624.2 x10_4/ul and a Ret (6 h) of 7.8%. The WBC (6 h) was 86 x10_2/uL, the KIDNEY_L (6 h) was 1 g and the KIDNEY_R (6 h) was 1 g. The KIDNEY_TOTAL (6 h) was 2 g, the LIVER (6 h) was 9.8 g and the A/G (6 h) was 2.2. It also gave an ALP (6 h) of 764.8 IU/L, an ALT (6 h) of 28.8 IU/L and an AST (6 h) of 58.8 IU/L. It also gave a BUN (6 h) of 9.2 mg/dL, a CRE (6 h) of 0.5 mg/dL and a Ca (6 h) of 10.3 mg/dL. It also gave a Cl (6 h) of 103.6 meq/L, a DBIL (6 h) of 0.016 mg/dL and a GLC (6 h) of 195 mg/dL. For the same compound, the IP (6 h) was 10.1 mg/dL, the K (6 h) was 4.8 meq/L and the LDH (6 h) was 88.8 IU/L. The Na (6 h) was 138.6 meq/L, the PL (6 h) was 131.4 mg/dL and the RALB (6 h) was 3.8 g/dL. For the same compound, the TBIL (6 h) was 0.4 mg/dL, the TC (6 h) was 74.2 mg/dL and the TG (6 h) was 79.6 mg/dL. For the same compound, the TP (6 h) was 5.6 g/dL, the gamma-GTP (6 h) was 1 IU/L and the TERMINAL_BW (9 h) was 210.8 g. It also gave an APTT (9 h) of 16.3 s, a Bas (9 h) of 0% and an Eos (9 h) of 1%. For the same compound, the Fbg (9 h) was 233 mg/dL, the Hb (9 h) was 13.6 g/dL and the Ht (9 h) was 40.8%. For the same compound, the Lym (9 h) was 77.6%, the MCH (9 h) was 21.9 pg and the MCHC (9 h) was 33.4%. It also gave an MCV (9 h) of 65.6 fL, a Mono (9 h) of 5.4% and a Neu (9 h) of 16.6%. For the same compound, the PT (9 h) was 12.2 s, the Plat (9 h) was 109.2 x10_4/uL and the RBC (9 h) was 622.6 x10_4/ul. For the same compound, the Ret (9 h) was 7.4%, the WBC (9 h) was 90.4 x10_2/uL and the KIDNEY_L (9 h) was 0.9 g. It also gave a KIDNEY_R (9 h) of 1 g, a KIDNEY_TOTAL (9 h) of 1.9 g and an LIVER (9 h) of 9.1 g. It also gave an A/G (9 h) of 2.1, an ALP (9 h) of 731.6 IU/L and an ALT (9 h) of 29 IU/L. The AST (9 h) was 59.8 IU/L, the BUN (9 h) was 10.4 mg/dL and the CRE (9 h) was 0.6 mg/dL. For the same compound, the Ca (9 h) was 10.1 mg/dL, the Cl (9 h) was 104.4 meq/L and the DBIL (9 h) was 0.004 mg/dL. For the same compound, the GLC (9 h) was 187.8 mg/dL, the IP (9 h) was 11.1 mg/dL and the K (9 h) was 4.9 meq/L. It also gave an LDH (9 h) of 85 IU/L, a Na (9 h) of 138 meq/L and a PL (9 h) of 112.4 mg/dL. The RALB (9 h) was 3.9 g/dL, the TBIL (9 h) was 0.3 mg/dL and the TC (9 h) was 67.4 mg/dL. For the same compound, the TG (9 h) was 37.6 mg/dL, the TP (9 h) was 5.7 g/dL and the gamma-GTP (9 h) was 1.2 IU/L. The TERMINAL_BW (24 h) was 222.2 g, the APTT (24 h) was 16.1 s and the Bas (24 h) was 0%. The Eos (24 h) was 1.2%, the Fbg (24 h) was 223.2 mg/dL and the Hb (24 h) was 13.8 g/dL. It also gave a Ht (24 h) of 41.1%, a Lym (24 h) of 77.2% and an MCH (24 h) of 22.4 pg. It also gave an MCHC (24 h) of 33.7%, an MCV (24 h) of 66.5 fL and a Mono (24 h) of 9%. It also gave a Neu (24 h) of 12.6%, a PT (24 h) of 12.3 s and a Plat (24 h) of 105.9 x10_4/uL. It also gave an RBC (24 h) of 617.8 x10_4/ul, a Ret (24 h) of 7.5% and a WBC (24 h) of 80 x10_2/uL. The KIDNEY_L (24 h) was 1 g, the KIDNEY_R (24 h) was 1 g and the KIDNEY_TOTAL (24 h) was 2.1 g. The LIVER (24 h) was 11.9 g, the A/G (24 h) was 2.2 and the ALP (24 h) was 861.2 IU/L. For the same compound, the ALT (24 h) was 31.6 IU/L, the AST (24 h) was 63.4 IU/L and the BUN (24 h) was 18.6 mg/dL. It also gave a CRE (24 h) of 0.6 mg/dL, a Ca (24 h) of 10.3 mg/dL and a Cl (24 h) of 104.8 meq/L. The DBIL (24 h) was 0.016 mg/dL, the GLC (24 h) was 183.2 mg/dL and the IP (24 h) was 7.9 mg/dL. It also gave a K (24 h) of 5 meq/L, an LDH (24 h) of 111.2 IU/L and a Na (24 h) of 138.2 meq/L. The PL (24 h) was 130.6 mg/dL, the RALB (24 h) was 4.1 g/dL and the TBIL (24 h) was 0.4 mg/dL. It also gave a TC (24 h) of 68.2 mg/dL, a TG (24 h) of 111 mg/dL and a TP (24 h) of 5.9 g/dL. It also gave a gamma-GTP (24 h) of 1.4 IU/L.
